Drawing on patent publication US20250340557A1, “PYRIMIDINE DERIVATIVE” (ASKA PHARMACEUTICAL CO., LTD., priority 2022, published 2025), this text covers IC50 for 23 molecules.

SMILES strings stand for the structures.

The target of the experiment is T1, human mPGES-1 (Homo sapiens, UniProt O14684).
T1 construct: made in house; host or cells: COS-1 cells (transient transfection; microsomal fraction used as enzyme)
T1 sequence (O14684 1-152): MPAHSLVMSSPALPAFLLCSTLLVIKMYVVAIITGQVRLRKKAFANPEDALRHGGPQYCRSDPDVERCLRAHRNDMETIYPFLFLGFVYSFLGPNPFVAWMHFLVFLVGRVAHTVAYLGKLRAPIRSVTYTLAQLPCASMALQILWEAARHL
As to the kind of experiment: Test for mPGES-1 inhibitory activity (microsomal enzyme, PGE2 EIA). It counts as biochemical. Particulars: microsomes of COS-1 cells transfected with human mPGES-1 cDNA; PGH2 1 μM; 4° C., 4 minutes; PGE2 by EIA; read-out: h mPGES1 IC50. An outline of the steps:
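Enzyme source was microsomes from COS-1 cells transiently expressing human mPGES-1, in sodium phosphate pH 7.2 with 2.5 mM GSH, 1 mM EDTA and 2% DMSO final. After a 15 min preincubation with compound at 4 °C, 1 μM PGH2 (final) reacted for 4 min at 4 °C.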
Turning to `Cc1nc(-c2c(C(F)(F)F)ccc(CNC(=O)[C@H]3C[C@H](OCc4cc(Cl)ccc4F)C3)c2F)[nH]c(=O)c1F` [Example 226, trans-3-[(5-chloro-2-fluorobenzyl)oxy]-N-[2-fluoro-3-(5-fluoro-4-methyl-6-oxo-1,6-dihydropyrimidin-2-yl)-4-(trifluoromethyl)benzyl]cyclobutane-1-carboxamide], the IC50 is < 1 nM. `Cc1nc(-c2c(C(F)(F)F)ccc(CNC(=O)[C@H]3C[C@H](OCc4ccc(F)c(Cl)c4)C3)c2F)[nH]c(=O)c1F` [Example 227, trans-3-[(3-chloro-4-fluorobenzyl)oxy]-N-[2-fluoro-3-(5-fluoro-4-methyl-6-oxo-1,6-dihydropyrimidin-2-yl)-4-(trifluoromethyl)benzyl]cyclobutane-1-carboxamide]: the IC50 was < 1 nM. The figure for `Cc1nc(-c2c(C(F)(F)F)ccc(CNC(=O)[C@H]3C[C@H](OCc4cc(F)cc(Cl)c4)C3)c2F)[nH]c(=O)c1F` [Example 228, trans-3-[(3-chloro-5-fluorobenzyl)oxy]-N-[2-fluoro-3-(5-fluoro-4-methyl-6-oxo-1,6-dihydropyrimidin-2-yl)-4-(trifluoromethyl)benzyl]cyclobutane-1-carboxamide] is < 1 nM. Take `CCc1nc(-c2c(C(F)(F)F)ccc(CNC(=O)[C@H]3C[C@H](OCc4ccccc4Cl)C3)c2F)[nH]c(=O)c1F` [Example 229, trans-3-[(2-chlorobenzyl)oxy]-N-[3-(4-ethyl-5-fluoro-6-oxo-1,6-dihydropyrimidin-2-yl)-2-fluoro-4-(trifluoromethyl)benzyl]cyclobutane-1-carboxamide]: the IC50 was < 1 nM. With `CCc1nc(-c2c(C(F)(F)F)ccc(CNC(=O)[C@H]3C[C@H](OCc4cccc(Cl)c4)C3)c2F)[nH]c(=O)c1F` [Example 230, trans-3-[(3-chlorobenzyl)oxy]-N-[3-(4-ethyl-5-fluoro-6-oxo-1,6-dihydropyrimidin-2-yl)-2-fluoro-4-(trifluoromethyl)benzyl]cyclobutane-1-carboxamide], the IC50 was < 1 nM. Consider `CCc1nc(-c2c(C(F)(F)F)ccc(CNC(=O)[C@H]3C[C@H](OCc4ccc(Cl)cc4)C3)c2F)[nH]c(=O)c1F` [Example 231, trans-3-[(4-chlorobenzyl)oxy]-N-[3-(4-ethyl-5-fluoro-6-oxo-1,6-dihydropyrimidin-2-yl)-2-fluoro-4-(trifluoromethyl)benzyl]cyclobutane-1-carboxamide], for which the IC50 was < 1 nM. Consider `CCc1nc(-c2c(C(F)(F)F)ccc(CNC(=O)[C@H]3C[C@H](OCc4ccccc4C(F)(F)F)C3)c2F)[nH]c(=O)c1F` [Example 232, trans-N-[3-(4-ethyl-5-fluoro-6-oxo-1,6-dihydropyrimidin-2-yl)-2-fluoro-4-(trifluoromethyl)benzyl]-3-{[2-(trifluoromethyl)benzyl]oxy}cyclobutane-1-carboxamide], for which the IC50 is < 1 nM.

Take `CCc1nc(-c2c(C(F)(F)F)ccc(CNC(=O)[C@H]3C[C@H](OCc4cccc(C(F)(F)F)c4)C3)c2F)[nH]c(=O)c1F` [Example 233, trans-N-[3-(4-ethyl-5-fluoro-6-oxo-1,6-dihydropyrimidin-2-yl)-2-fluoro-4-(trifluoromethyl)benzyl]-3-{[3-(trifluoromethyl)benzyl]oxy}cyclobutane-1-carboxamide]: the IC50 was < 1 nM. As for `CCc1nc(-c2c(C(F)(F)F)ccc(CNC(=O)[C@H]3C[C@H](OCc4ccc(C(F)(F)F)cc4)C3)c2F)[nH]c(=O)c1F` [Example 234, trans-N-[3-(4-ethyl-5-fluoro-6-oxo-1,6-dihydropyrimidin-2-yl)-2-fluoro-4-(trifluoromethyl)benzyl]-3-{[4-(trifluoromethyl)benzyl]oxy}cyclobutane-1-carboxamide], the IC50 was < 1 nM. Consider `CCc1nc(-c2c(C(F)(F)F)ccc(CNC(=O)[C@H]3C[C@H](OCc4ccc(F)cc4F)C3)c2F)[nH]c(=O)c1F` [Example 235, trans-3-[(2,4-difluorobenzyl)oxy]-N-[3-(4-ethyl-5-fluoro-6-oxo-1,6-dihydropyrimidin-2-yl)-2-fluoro-4-(trifluoromethyl)benzyl]cyclobutane-1-carboxamide], for which the IC50 worked out at 1.1 nM. Then `CCc1nc(-c2c(C(F)(F)F)ccc(CNC(=O)[C@H]3C[C@H](OCc4ccc(Cl)cc4F)C3)c2F)[nH]c(=O)c1F` [Example 236, trans-3-[(4-chloro-2-fluorobenzyl)oxy]-N-[3-(4-ethyl-5-fluoro-6-oxo-1,6-dihydropyrimidin-2-yl)-2-fluoro-4-(trifluoromethyl)benzyl]cyclobutane-1-carboxamide], with < 1 nM. Take `CCc1nc(-c2c(C(F)(F)F)ccc(CNC(=O)[C@H]3C[C@H](OCc4ccc(F)c(F)c4)C3)c2F)[nH]c(=O)c1F` [Example 237, trans-3-[(3,4-difluorobenzyl)oxy]-N-[3-(4-ethyl-5-fluoro-6-oxo-1,6-dihydropyrimidin-2-yl)-2-fluoro-4-(trifluoromethyl)benzyl]cyclobutane-1-carboxamide]: the IC50 was < 1 nM. `CCc1nc(-c2c(C(F)(F)F)ccc(CNC(=O)[C@H]3C[C@H](OCc4cc(F)cc(F)c4)C3)c2F)[nH]c(=O)c1F` [Example 238, trans-3-[(3,5-difluorobenzyl)oxy]-N-[3-(4-ethyl-5-fluoro-6-oxo-1,6-dihydropyrimidin-2-yl)-2-fluoro-4-(trifluoromethyl)benzyl]cyclobutane-1-carboxamide]: the IC50 is < 1 nM. `CCc1nc(-c2c(C(F)(F)F)ccc(CNC(=O)[C@H]3C[C@H](OCc4cccc(F)c4)C3)c2F)[nH]c(=O)c1F` [Example 239, trans-N-[3-(4-ethyl-5-fluoro-6-oxo-1,6-dihydropyrimidin-2-yl)-2-fluoro-4-(trifluoromethyl)benzyl]-3-[(3-fluorobenzyl)oxy]cyclobutane-1-carboxamide]: the IC50 is < 1 nM.

Regarding `CCc1nc(-c2c(C(F)(F)F)ccc(CNC(=O)[C@H]3C[C@H](OCc4cccc(F)c4F)C3)c2F)[nH]c(=O)c1F` [Example 240, trans-3-[(2,3-difluorobenzyl)oxy]-N-[3-(4-ethyl-5-fluoro-6-oxo-1,6-dihydropyrimidin-2-yl)-2-fluoro-4-(trifluoromethyl)benzyl]cyclobutane-1-carboxamide], the IC50 was 3.2 nM. Turning to `CCc1nc(-c2c(C(F)(F)F)ccc(CNC(=O)[C@H]3C[C@H](OCc4ccc(F)cc4Cl)C3)c2F)[nH]c(=O)c1F` [Example 241, trans-3-[(2-chloro-4-fluorobenzyl)oxy]-N-[3-(4-ethyl-5-fluoro-6-oxo-1,6-dihydropyrimidin-2-yl)-2-fluoro-4-(trifluoromethyl)benzyl]cyclobutane-1-carboxamide], the IC50 is < 1 nM.

Turning to `CCc1nc(-c2c(C(F)(F)F)ccc(CNC(=O)[C@H]3C[C@H](OCc4cccc(Cl)c4F)C3)c2F)[nH]c(=O)c1F` [Example 242, trans-3-[(3-chloro-2-fluorobenzyl)oxy]-N-[3-(4-ethyl-5-fluoro-6-oxo-1,6-dihydropyrimidin-2-yl)-2-fluoro-4-(trifluoromethyl)benzyl]cyclobutane-1-carboxamide], the IC50 was < 1 nM. On to `CCc1nc(-c2c(C(F)(F)F)ccc(CNC(=O)[C@H]3C[C@H](OCc4cc(Cl)ccc4F)C3)c2F)[nH]c(=O)c1F` [Example 243, trans-3-[(5-chloro-2-fluorobenzyl)oxy]-N-[3-(4-ethyl-5-fluoro-6-oxo-1,6-dihydropyrimidin-2-yl)-2-fluoro-4-(trifluoromethyl)benzyl]cyclobutane-1-carboxamide], for which the IC50 was < 1 nM. `CCc1nc(-c2c(C(F)(F)F)ccc(CNC(=O)[C@H]3C[C@H](OCc4ccc(F)c(Cl)c4)C3)c2F)[nH]c(=O)c1F` [Example 244, trans-3-[(3-chloro-4-fluorobenzyl)oxy]-N-[3-(4-ethyl-5-fluoro-6-oxo-1,6-dihydropyrimidin-2-yl)-2-fluoro-4-(trifluoromethyl)benzyl]cyclobutane-1-carboxamide]: the IC50 is < 1 nM. On to `CCc1nc(-c2c(C(F)(F)F)ccc(CNC(=O)[C@H]3C[C@H](OCc4cc(F)cc(Cl)c4)C3)c2F)[nH]c(=O)c1F` [Example 245, trans-3-[(3-chloro-5-fluorobenzyl)oxy]-N-[3-(4-ethyl-5-fluoro-6-oxo-1,6-dihydropyrimidin-2-yl)-2-fluoro-4-(trifluoromethyl)benzyl]cyclobutane-1-carboxamide], for which the IC50 was < 1 nM. As for `Cc1nc(-c2c(C(F)(F)F)ccc(CNC(=O)[C@H]3C[C@H](OCc4cccc(Cl)c4)C3)c2F)[nH]c(=O)c1C` [Example 246, trans-3-[(3-chlorobenzyl)oxy]-N-[3-(4,5-dimethyl-6-oxo-1,6-dihydropyrimidin-2-yl)-2-fluoro-4-(trifluoromethyl)benzyl]cyclobutane-1-carboxamide], the IC50 is < 1 nM. Turning to `O=c1[nH]c(-c2c(C(F)(F)F)ccc(CNC(=O)[C@H]3C[C@H](OCc4cccc(Cl)c4)C3)c2F)nc2c1CCC2` [Example 247, trans-3-[(3-chlorobenzyl)oxy]-N-[2-fluoro-3-(4-oxo-4,5,6,7-tetrahydro-3H-cyclopenta[d]pyrimidin-2-yl)-4-(trifluoromethyl)benzyl]cyclobutane-1-carboxamide], the IC50 is < 1 nM. Consider `O=C(NCc1ccc(C(F)(F)F)c(-c2nc(C(F)(F)F)cc(=O)[nH]2)c1F)C1CCC(Oc2ccc(C(F)(F)F)cn2)CC1` (centres unmarked) [Example 248, N-{2-fluoro-3-[6-oxo-4-(trifluoromethyl)-1,6-dihydropyrimidin-2-yl]-4-(trifluoromethyl)benzyl}-4-{[5-(trifluoromethyl)pyridin-2-yl]oxy}cyclohexane-1-carboxamide], for which the IC50 is < 1 nM.

By IC50 is commonly meant the concentration at which inhibition is half-maximal.
